Where two headings read alike, the source gives them in different places.
What was measured:
Format in all cases: cell-based
human TAAR1 receptors = biological target: T1, human TAAR1 receptors (Homo sapiens, UniProt Q96RJ0); test: TAAR1 Agonism Assay: cAMP HTRF assay for Gs coupled receptor TAAR1 (Euroscreen FAST-0987C); conditions: CHO-K1 cells expressing human TAAR1, cAMP HTRF
T1 construct: host or cells: CHO-K1
T1 sequence (Q96RJ0 1-339): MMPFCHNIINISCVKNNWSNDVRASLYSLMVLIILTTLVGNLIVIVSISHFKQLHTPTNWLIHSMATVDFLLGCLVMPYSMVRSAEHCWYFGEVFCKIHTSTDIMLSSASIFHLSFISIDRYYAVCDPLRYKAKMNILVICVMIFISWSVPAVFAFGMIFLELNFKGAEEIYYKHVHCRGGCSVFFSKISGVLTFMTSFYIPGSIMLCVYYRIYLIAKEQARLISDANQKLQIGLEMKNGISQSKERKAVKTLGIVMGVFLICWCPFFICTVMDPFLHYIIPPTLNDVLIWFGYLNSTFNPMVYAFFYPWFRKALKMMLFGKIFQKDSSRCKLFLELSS
How it was run: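 cAMP accumulation detected by HTRF fluorescence ratio, reagents added in lysis buffer and incubated 1 h at about room temperature. Beforehand, cells (about 3,000 per well) sat with test compound at ten concentrations from 0.3 to 10,000 nM in duplicate for roughly 30 min at about room temperature; tyramine dose-response run alongside.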

human 5-HT2A receptor = biological target: T2, human 5-HT2A receptor (Homo sapiens, UniProt P28223); test: 5HT2A Antagonism Assay (Euroscreen FAST-05051), IP-One HTRF; conditions: CHO-K1 cells expressing human 5-HT2A, reference agonist at EC80, IP-One
T2 construct: host or cells: CHO-K1
T2 sequence (P28223 whole entry): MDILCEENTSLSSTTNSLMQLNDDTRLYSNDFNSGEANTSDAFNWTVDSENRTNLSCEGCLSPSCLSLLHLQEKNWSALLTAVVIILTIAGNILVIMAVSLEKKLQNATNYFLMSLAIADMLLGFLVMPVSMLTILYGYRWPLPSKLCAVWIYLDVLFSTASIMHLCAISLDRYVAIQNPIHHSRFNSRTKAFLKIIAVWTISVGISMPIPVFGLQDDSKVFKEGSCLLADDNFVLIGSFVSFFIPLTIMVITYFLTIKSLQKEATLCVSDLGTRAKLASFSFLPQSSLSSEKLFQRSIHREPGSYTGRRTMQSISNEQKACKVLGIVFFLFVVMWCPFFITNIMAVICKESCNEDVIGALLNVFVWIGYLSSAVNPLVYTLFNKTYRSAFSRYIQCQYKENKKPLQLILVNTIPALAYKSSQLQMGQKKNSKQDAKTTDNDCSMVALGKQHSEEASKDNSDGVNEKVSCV
How it was run: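 CHO-K1 cells expressing receptor, 20,000/well, co-incubated with test compound and reference agonist at its EC80 for 60 min at 37 °C. IP1 accumulation read by HTRF after ~1 h detection at room temperature. Compounds tested in duplicate at 0.3–10,000 nM.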

human 5-HT7 receptor = biological target: T3, human 5-HT7 receptor (Homo sapiens, UniProt P34969); test: 5HT7 Antagonism Assay (Euroscreen FAST-0499C), cAMP HTRF; conditions: CHO-K1 cells expressing human 5-HT7, reference agonist at EC80, cAMP HTRF
T3 construct: host or cells: CHO-K1
T3 sequence (P34969 whole entry): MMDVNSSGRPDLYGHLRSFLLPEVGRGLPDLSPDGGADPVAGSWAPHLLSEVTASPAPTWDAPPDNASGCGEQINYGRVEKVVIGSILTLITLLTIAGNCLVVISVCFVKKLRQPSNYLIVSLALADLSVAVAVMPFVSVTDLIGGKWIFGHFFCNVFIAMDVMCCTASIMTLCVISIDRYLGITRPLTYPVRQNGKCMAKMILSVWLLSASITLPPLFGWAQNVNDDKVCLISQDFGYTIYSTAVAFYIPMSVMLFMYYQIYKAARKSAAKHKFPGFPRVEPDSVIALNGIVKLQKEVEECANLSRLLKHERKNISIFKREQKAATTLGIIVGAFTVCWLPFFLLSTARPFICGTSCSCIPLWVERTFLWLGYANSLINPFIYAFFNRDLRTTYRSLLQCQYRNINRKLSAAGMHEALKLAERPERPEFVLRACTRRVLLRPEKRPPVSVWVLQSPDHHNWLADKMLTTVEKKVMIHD
How it was run: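 CHO-K1 cells expressing human 5-HT7, 3000 per well in Krebs-Ringer HEPES with 1 mM IBMX, were exposed for 30 minutes at room temperature to compound plus reference agonist at its EC80. cAMP was read by HTRF after 1 hour; compounds were tested in duplicate from 0.3 to 10,000 nM.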

IC50 (human 5-HT2A receptor; read-out: 5-HT2A (IC50)) [µM] | SMILES | EC50 (human TAAR1 receptors) [µM] | IC50 (human 5-HT2A receptor; 5-HT2A (IC50)) [µM] | IC50 (human 5-HT7 receptor) [µM]
 | C[C@H]1c2ccccc2Oc2cccnc2[C@@H]1CN (stereo in doubt) [Compound 115, ((10R*,11S*)-10-methyl-10,11-dihydrobenzo[6,7]oxepino[3,2-b]pyridin-11-yl)methanamine] | 1 to 10 | > 10 | ≥ 10
 | CNC[C@H]1c2ncccc2Oc2ccccc2[C@H]1C (stereo in doubt) [Compound 116, ((10S*,11S*)-10-methyl-10,11-dihydrobenzo[6,7]oxepino[3,2-b]pyridin-11-yl)-N-methylmethanamine] | < 1 | 1 to 10 | ≥ 10
 | CNC[C@@H]1c2ncccc2Oc2ccccc2[C@H]1C (stereo in doubt) [Compound 118, ((10S*,11R*)-10-methyl-10,11-dihydrobenzo[6,7]oxepino[3,2-b]pyridin-11-yl)-N-methylmethanamine] | < 1 | 1 to 10 | ≥ 10
 | CNC[C@H]1c2ncccc2Oc2ccccc2[C@@H]1C (stereo in doubt) [Compound 119, ((10R*,11S*)-10-methyl-10,11-dihydrobenzo[6,7]oxepino[3,2-b]pyridin-11-yl)-N-methylmethanamine] | 1 to 10 | 1 to 10 | ≥ 10
1 to 10 | NCC1Oc2ccccc2Cc2ccccc21 (stereo not drawn) [Compound 77, (6,11-dihydrodibenzo[b,e]oxepin-6-yl)methanamine] | < 1 |  | ≥ 10
